Results from patent US20260184708A1, “PYRIDAZINONES AND METHODS OF USE THEREOF” (GFB (ABC), LLC, priority 2017, published 2026).
Read-outs that look alike come from different tables or passages of the source.

Molecular target: T1, TRPC5 (Homo sapiens, UniProt Q9UL62)
T1 construct: expressed in transfected cells; host or cells: HEK 293
T1 sequence (Q9UL62 1-973): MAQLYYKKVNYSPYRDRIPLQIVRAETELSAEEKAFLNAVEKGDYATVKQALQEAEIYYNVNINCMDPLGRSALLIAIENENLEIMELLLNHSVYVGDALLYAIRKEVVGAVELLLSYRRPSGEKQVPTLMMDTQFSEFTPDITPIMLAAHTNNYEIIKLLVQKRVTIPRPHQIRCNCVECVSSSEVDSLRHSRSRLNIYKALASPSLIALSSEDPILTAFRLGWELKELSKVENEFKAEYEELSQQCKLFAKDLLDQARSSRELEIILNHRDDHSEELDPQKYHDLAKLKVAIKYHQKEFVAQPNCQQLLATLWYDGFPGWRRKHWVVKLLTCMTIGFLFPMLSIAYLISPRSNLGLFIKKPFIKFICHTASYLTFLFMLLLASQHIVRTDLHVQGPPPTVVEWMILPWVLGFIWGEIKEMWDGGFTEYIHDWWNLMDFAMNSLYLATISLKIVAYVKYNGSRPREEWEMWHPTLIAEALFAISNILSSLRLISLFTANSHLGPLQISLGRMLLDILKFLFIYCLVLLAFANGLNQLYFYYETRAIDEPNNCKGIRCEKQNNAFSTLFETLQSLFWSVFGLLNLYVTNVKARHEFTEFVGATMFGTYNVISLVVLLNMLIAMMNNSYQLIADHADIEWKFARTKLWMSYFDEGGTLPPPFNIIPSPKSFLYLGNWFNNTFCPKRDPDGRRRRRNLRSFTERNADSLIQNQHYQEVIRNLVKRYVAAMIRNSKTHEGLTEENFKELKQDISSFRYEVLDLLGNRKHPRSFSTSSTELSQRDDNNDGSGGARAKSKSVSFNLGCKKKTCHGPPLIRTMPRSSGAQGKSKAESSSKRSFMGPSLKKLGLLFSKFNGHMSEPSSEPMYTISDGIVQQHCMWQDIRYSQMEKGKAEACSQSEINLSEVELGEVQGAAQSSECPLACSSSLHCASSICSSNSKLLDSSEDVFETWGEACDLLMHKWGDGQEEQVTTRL
Experiment: TRPC5 automated patch clamp assay (Qpatch), current block after rosiglitazone stimulation
Format: cell-based
Settings: HEK293 cells overexpressing TRPC5, rosiglitazone stimulation
Protocol: HEK 293 cells expressing human TRPC5 were harvested, re-suspended in serum free medium, and added to the automated platform and used within 2-3 hours. Internal and external physiological solutions were freshly prepared prior to the assay. The external solution contained: 145 mM NaCl, 4 mM KCl, 2 mM CaCl2), 1 mM MgCl2, 10 mM HEPES, 10 mM glucose, pH 7.4 with NaOH and 300 mOsm/L. The internal solution contained 120 mM L-aspartic acid, 120 mM CsOH·H2O, 20 mM CsCl, 2 mM MgCl2, 8.8 mM CaCl2), 10 mM EGTA, 10 mM HEPES, 10 mM Glucose, 0.1 mM GTP and 2 mM Na2ATP; pH 7.2 with CsOH and 290 mOsm/L. The free internal Ca2+ concentration was buffered to 1 μM.
The automated electrophysiological platform QPatch 16 from Sophion (Denmark) was used to carry out the compounds profiling. The series resistance and quality of seals were continuously monitored during the experiments. Data was analyzed using Sophion QPatch assay software 5.6 (Odense). IC50 values were calculated using a least squares regression algorithm (Hill equation).
To monitor the ion currents, a voltage ramp from −100 mV to +100 mV, over 300 ms, was applied every 10 seconds, from a holding potential of −60 mV.
After recording for a minimum of 60 seconds control period, Rosiglitazone (30 uM), was applied to activate the channel.

[1] = Table 5, 80 mV, read-out: TRPC5_QP_ XC50_80
[2] = Table 5, 100 mV, read-out: TRPC5_QP_ XC50_100
[3] = Table 3, 80 mV, read-out: TRPC5_QP_ XC50_80
[4] = Table 3, 100 mV, read-out: TRPC5_QP_ XC50_100
[5] = 80 mV, read-out: TRPC5_QP XC50_80
[6] = 100 mV, read-out: TRPC5_QP XC50_100
[7] = Table 4, 80 mV, read-out: TRPC5_QP_ XC50_80
[8] = Table 4, 100 mV, read-out: TRPC5_QP_ XC50_100

CC[C@H](c1ccccc1)N1CCN(c2cn[nH]c(=O)c2Cl)CC1
IC50 [1]: 1 to 5 µM | IC50 [2]: 1 to 5 µM

COc1ncccc1CN1CCN(c2cn[nH]c(=O)c2Cl)CC1
IC50 [1]: 1 to 5 µM | IC50 [2]: 1 to 5 µM

Cc1cc(F)ccc1CN1CCN(c2cn[nH]c(=O)c2Br)CC1
IC50 [3]: 1 to 5 µM | IC50 [4]: 1 to 5 µM

O=c1[nH]ncc(N2C3CCC2CN(Cc2ccccc2)C3)c1Br
IC50 [5]: 10 to 500 µM | IC50 [6]: 10 to 500 µM

O=C1CN(c2c(Cl)c(Br)n[nH]c2=O)CCN1Cc1ccccc1C(F)(F)F
IC50 [7]: 1 to 5 µM | IC50 [8]: 5 to 10 µM

Cn1ccnc1CN1CCN(c2cn[nH]c(=O)c2Br)CC1
IC50 [3]: 10 to 500 µM | IC50 [4]: 10 to 500 µM

Cc1ccccc1CN1CCN(c2cn[nH]c(=O)c2C2CCOCC2)CC1=O
IC50 [7]: 10 to 500 µM | IC50 [8]: 10 to 500 µM

Cc1ccccc1CN1CCN(c2cn[nH]c(=O)c2Cl)CC1
IC50 [3]: 1 to 5 µM | IC50 [4]: 1 to 5 µM

Cc1n[nH]c(=O)c(Cl)c1N1CCN(Cc2ccc(F)cc2C(F)(F)F)C(=O)C1
IC50 [1]: 5 to 10 µM | IC50 [2]: 5 to 10 µM

Cc1cc(F)ccc1CN1CCN(c2cc(-c3ccccc3)n[nH]c2=O)CC1
IC50 [1]: 1 to 5 µM

O=c1[nH]ncc(N2CCN(Cc3cccc4[nH]ncc34)CC2)c1Cl
IC50 [7]: 10 to 500 µM | IC50 [8]: 10 to 500 µM

CN(C)C(=O)CN1CCN(c2cn[nH]c(=O)c2Cl)CC1 [drawing 673]
IC50 [3]: 10 to 500 µM | IC50 [4]: 10 to 500 µM

O=c1[nH]ncc(N2CCN(Cc3ccccc3)C3(CC3)C2)c1Br
IC50 [5]: 10 to 500 µM | IC50 [6]: 10 to 500 µM

O=C1CN(c2cn[nH]c(=O)c2Br)CCN1Cc1cccc2ccccc12 [drawing 665]
IC50 [3]: 1e-05 to 1 µM | IC50 [4]: 1e-05 to 1 µM

Cc1ccccc1CN1CCN(c2cn[nH]c(=O)c2Br)C(C)C1 (centres unmarked) [drawing 647]
IC50 [3]: 1 to 5 µM | IC50 [4]: 1 to 5 µM

CCc1c(N2CCN(Cc3ccccc3C)C(=O)C2)cn[nH]c1=O
IC50 [7]: 5 to 10 µM | IC50 [8]: 5 to 10 µM

Cc1ccccc1S(=O)(=O)N1CCN(c2cn[nH]c(=O)c2Br)CC1
IC50 [5]: 10 to 500 µM | IC50 [6]: 10 to 500 µM

O=C1CN(c2c(Cl)cn[nH]c2=O)CCN1Cc1ccc(F)cc1F
IC50 [1]: 10 to 500 µM | IC50 [2]: 10 to 500 µM

O=C1CN(c2cn[nH]c(=O)c2Cl)CCN1Cc1ccccc1OC(F)(F)F [drawing 689]
IC50 [3]: 1e-05 to 1 µM | IC50 [4]: 1e-05 to 1 µM

COc1c(N2CCN(Cc3ccccc3C)C(=O)C2)cn[nH]c1=O
IC50 [3]: 10 to 500 µM | IC50 [4]: 10 to 500 µM

O=c1[nH]ncc(N2CCCN(Cc3ccccc3)CC2)c1Br
IC50 [3]: 10 to 500 µM | IC50 [4]: 10 to 500 µM

C[C@H](c1ccccc1)n1cnc2c1CCN(c1cn[nH]c(=O)c1Cl)C2 [drawing 833]
IC50 [1]: 1 to 5 µM | IC50 [2]: 1 to 5 µM

Cc1ccccc1CN1CCN(c2cn[nH]c(=O)c2N2CCOCC2)CC1=O
IC50 [3]: 10 to 500 µM | IC50 [4]: 10 to 500 µM

O=C1CN(c2cn[nH]c(=O)c2Cl)CCN1Cc1ccc(OC(F)(F)F)cc1
IC50 [1]: 1 to 5 µM | IC50 [2]: 1 to 5 µM

O=c1[nH]ncc(N2CCN(Cc3ccccc3OC(F)(F)F)CC2)c1Br
IC50 [3]: 1 to 5 µM | IC50 [4]: 1 to 5 µM

O=c1[nH]ncc(N2CCN(Cc3ccc(F)cc3F)CC2)c1Cl
IC50 [3]: 5 to 10 µM | IC50 [4]: 5 to 10 µM

Cc1ccccc1C(C)N1CCN(c2cn[nH]c(=O)c2Cl)CC1=O (centres unmarked)
IC50 [7]: 1e-05 to 1 µM | IC50 [8]: 1e-05 to 1 µM

O=C1CN(c2cn[nH]c(=O)c2Cl)CCN1Cc1ccc(F)cc1F [drawing 686]
IC50 [3]: 1 to 5 µM | IC50 [4]: 1 to 5 µM

CS(=O)(=O)c1ccccc1CN1CCN(c2cn[nH]c(=O)c2Cl)CC1
IC50 [1]: 5 to 10 µM | IC50 [2]: 5 to 10 µM

O=c1[nH]ncc(N2CCN(S(=O)(=O)c3ccccc3)CC2)c1Br
IC50 [5]: 10 to 500 µM | IC50 [6]: 10 to 500 µM
